Assays:
FGFR = assay: Kinase inhibition profile, related RTK; format: biochemical; conditions: ATP concentration of 1 nM
[1] = system: VEGF-induced retinal vascular permeability; assay: VEGF-induced retinal vascular permeability, intravitreal injection, rat; format: in vivo, Sprague-Dawley rats; conditions: 10 μl intravitreal
Protocol: METHODS: Adult Sprague-Dawley rats were anesthetized with intramuscular ketamine/xylazine and their pupils dilated with topical cycloplegics. […] Ten μl of each compound was intravitreally injected in each treatment eye (n=6 eyes per group). Three days following first intravitreal injection, all animals received an intravitreal injection of 10 μl 400 ng hr VEGF in both eyes. Twenty-four hours post-injection of VEGF, intravenous infusion of 3% Evans blue dye was performed in all animals, where 50 mg/kg of Evans blue dye was injected via the lateral tail vein during general anesthesia. After the dye had circulated for 90 minutes, the rats were euthanized. The rats were then systemically perfused with balanced salt solution, and then both eyes of each rat were immediately enucleated and the retinas harvested using a surgical microscope. After measurement of the retinal wet weight, the Evans blue dye was extracted by placing the retina in a 0.2 ml formamide (Sigma) and then the homogenized and ultracentrifuged. Blood samples were centrifuged and the plasma diluted 100 fold in formamide. For both retina and plasma samples, 60 μl of supernatant was used to measure the Evans blue dye absorbance (ABS) with at 620/740 nm. The blood-retinal barrier breakdown and subsequent retinal vascular permeability as measured by dye absorbance were calculated as means±s.e.m. of net ABS/wet weight/plasma ABS. A two-tailed Student's t-test was used for pair wise comparisons between OS and OD eyes in each group. One way ANOVA was used to determine an overall difference between treatment means, where P≦0.05 was considered significant.

## Cc1ccc(F)c(NC(=O)Nc2ccc(-c3cccc4[nH]nc(N)c34)cc2)c1 [AL-39324, N-[4-[3-amino-1H-indazol-4-yl)phenyl]-N′-(2-fluoro-5-methylphenyl)urea]
FGFR
  IC50: > 12.5 µM
[1]; 0.3%
  decrease of retinal vascular permeability as compared to vehicle-injected eyes: 50%
  mean ABS±s.e.m. (net ABS/wet weight/plasma ABS, Evans blue): 4.84±0.64
[1]; 1.0%
  decrease of retinal vascular permeability as compared to vehicle-injected eyes: 61%
  mean ABS±s.e.m. (net ABS/wet weight/plasma ABS, Evans blue): 3.87±0.62
[1]; 3%
  decrease of retinal vascular permeability as compared to vehicle-injected eyes: 53%
[1]; 3.0%
  mean ABS±s.e.m. (net ABS/wet weight/plasma ABS, Evans blue): 4.75±0.40
